Experimental data published in patent publication US20070197532A1, “GLUCOKINASE ACTIVATORS” (priority 2005, published 2007).

molecular target: T1, glucokinase (GK) (Homo sapiens, UniProt P35557); assay: enzymatic glucokinase activity assay (ATP consumption, KinaseGlo luminescence); assay type: biochemical; settings: recombinant GK; 5 μM ATP, 5 mM Glucose, 2% DMSO, 60 min at room temperature; Kact = concentration giving 50% of the maximal increase in GK activity; read-out: pKact
T1 construct: I.D. No. 1 corresponds to residues 13-466 of glucokinase; made in house; host or cells: E. coli DH10b-T1r
T1 sequence (P35557 with tags, fused parts or gaps isoform P35557-2): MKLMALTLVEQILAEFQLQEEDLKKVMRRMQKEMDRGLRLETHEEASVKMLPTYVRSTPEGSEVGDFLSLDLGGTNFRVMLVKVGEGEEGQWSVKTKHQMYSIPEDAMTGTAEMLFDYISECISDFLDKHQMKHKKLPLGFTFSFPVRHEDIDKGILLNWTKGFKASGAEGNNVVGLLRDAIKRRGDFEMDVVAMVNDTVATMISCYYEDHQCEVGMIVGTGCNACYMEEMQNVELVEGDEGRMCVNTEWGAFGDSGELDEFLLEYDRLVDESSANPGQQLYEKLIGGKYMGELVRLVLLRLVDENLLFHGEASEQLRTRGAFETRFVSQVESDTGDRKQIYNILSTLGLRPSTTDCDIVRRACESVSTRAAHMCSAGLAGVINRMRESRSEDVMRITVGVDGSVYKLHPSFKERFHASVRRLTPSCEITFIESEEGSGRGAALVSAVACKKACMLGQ
Excerpt: The activity of compounds as glucokinase activators may be assayed in vitro, in vivo or in a cell line. Provided below is an enzymatic glucokinase activity assay.
Purified glucokinase may be obtained as follows. DNA encoding residues 12-465 of the full-length sequence of the human enzyme may be amplified by PCR and cloned into the HindIII and EcoRI sites of pFLAG-CTC (Sigma). SEQ. I.D. No. 1 corresponds to residues 13-466 of glucokinase.
The expression of recombinant glucokinase protein may be carried out by transformation and growth of DH10b-T1r E. coli cells incorporating the (pFLAG-CTC) plasmid in LB media. Protein expression can be induced in this system by the addition of IPTG to the culture medium.
Recombinant protein may be isolated from cellular extracts by passage over Sepharose Q Fast Flow resin (Pharmacia). This partially purified GK extract may then be further purified by a second passage over Poros HQ10 (Applied Biosystems). The purity of GK may be determined on denaturing SDS-PAGE gel. Purified GK may then be concentrated to a final concentration of 20.0 mg/ml. After flash freezing in liquid nitrogen, the proteins can be stored at −78° C. in a buffer containing 25 mM TRIS-HCl pH 7.6, 50 mM NaCl, and 0.5 mM TCEP.
The activation properties of compounds for GK may be determined using a black 384-well-plate format under the following reaction conditions: 25 mM Hepes pH 7.2, 25 mM NaCl, 10 mM MgCl2, 0.01% Brij35, 1 mM DTT, 5 μM ATP, 5 mM Glucose 2% DMSO. The amount of ATP consumed may be determined quantitatively by addition of equal volume of luciferase reagent (luciferase+beetle luciferin—KinaseGlo Luminescent Kinase Assay kit from Promega). The luminescence intensity may be measured by using the Analyst HT from LJL Biosystems.
The assay reaction may be initiated as follows: 4 μl of substrate mixture (12.5 μM ATP and 12.5 mM Glucose) was added to each well of the plate, followed by the addition of 2 μl of activator (2 fold serial dilutions for 11 data points for each activator) containing 10% DMSO. 4 μL of 1.25 nM GK solution may be added to initiate the reaction. The reaction mixture may then be incubated at room temperature for 60 min, and quenched and developed by addition of 10 μL of luciferase reagent. Luminescence intensities of the resulting reaction mixtures may be measured after a 10 min incubation at room temperature. The luminescence intensity may be measured by using the Analyst HT from LJL Biosystems.
pKact and % ACTmax values may be calculated by non-linear curve fitting of the compound concentrations and luminescence intensities to a standard inhibition/activation equation.

Row | Structure (SMILES) | EC50 [nM]
1 | COc1ccccc1-c1nnc(SCC(=O)Nc2ccc(C)c(C)c2)[nH]1 | ≤ 2000
2 | Fc1ccccc1CSc1n[nH]c(-c2ccccc2OCc2ccccc2)n1 | ≤ 2000
3 | COc1ccccc1-c1cc(-c2cccc(C#N)c2)n[nH]1 | 2510 to 3980
4 | COc1cc(OCc2ccccc2)ccc1-c1cc(-c2ccc(F)cc2)n[nH]1 | ≤ 2000
5 | Cn1ccnc1COc1ccccc1-c1cc(-c2ccc(F)cc2)n[nH]1 | ≤ 2000
6 | c1ccc(-c2cc(-c3cccc4c3OCC4)[nH]n2)cc1 | 2510 to 3980
7 | COc1ccccc1-c1cc(-c2cccc(NC(C)=O)c2)n[nH]1 | ≥ 5010
8 | COc1ccccc1-c1nc(SCC(=O)c2ccc(O)c(O)c2)n[nH]1 | 2510 to 3980
9 | COc1ccccc1-c1nc(SCc2ccccc2F)n[nH]1 | 2510 to 3980
10 | FC(F)(F)COc1ccc(OCC(F)(F)F)c(-c2ccn[nH]2)c1 | ≤ 2000
11 | COc1ccccc1-c1nc(SCC(=O)N2CCOCC2)n[nH]1 | ≤ 2000
12 | COc1ccccc1-c1nnc(SCC(=O)Nc2ccccc2[N+](=O)[O-])[nH]1 | ≤ 2000
13 | COc1ccccc1-c1cc(OCc2ccccc2F)n[nH]1 | ≥ 5010
14 | COc1ccccc1-c1cc(-c2ccccc2)n[nH]1 | 2510 to 3980
15 | Fc1ccccc1COc1cc(-c2cccc3c2OCC3)[nH]n1 | ≥ 5010
16 | COc1ccccc1-c1cc(-c2ccc(C#N)cc2)n[nH]1 | 2510 to 3980
17 | c1ccc(-c2cc(-c3ccccc3OCc3ccccn3)[nH]n2)cc1 | 2510 to 3980
18 | COc1ccc(F)cc1-c1cc(OCc2ccccc2F)n[nH]1 | ≥ 5010
19 | COc1ccccc1-c1cc(-c2cccc(F)c2)[nH]n1 | ≥ 5010
20 | COc1ccc(F)cc1-c1cc(-c2cccc(F)c2)[nH]n1 | 2510 to 3980
21 | Fc1ccc(-c2cc(-c3ccccc3Oc3ccccc3)[nH]n2)cc1 | 2510 to 3980

Row | Structure (SMILES) | EC50 [nM]
22 | COc1ccccc1-c1cc(-c2ccc(F)cc2)n[nH]1 | 2510 to 3980
23 | Fc1ccc(-c2cc(-c3cccc(Oc4ncccn4)c3)[nH]n2)cc1 | ≥ 5010
24 | Fc1ccc(-c2cc(-c3cccc(Oc4ccccc4)c3)[nH]n2)cc1 | ≤ 2000
25 | CC1(C)Cc2cccc(-c3cc(-c4ccccc4)n[nH]3)c2O1 | ≤ 2000
26 | Brc1cc2c(c(-c3cc(-c4ccccc4)n[nH]3)c1)OCC2 | ≥ 5010
27 | COc1ccccc1-c1cc(-c2cccc(N)c2)n[nH]1 | 2510 to 3980
28 | COCCOc1cc(OCc2ccccc2)ccc1-c1cc(-c2ccccc2)n[nH]1 | ≤ 2000
29 | COc1ccccc1-c1cc(-c2ccc(N3CCOCC3)nc2)n[nH]1 | ≥ 5010
30 | c1ccc(COc2ccc(-c3cc(-c4ccccc4)n[nH]3)c(OCc3ccccn3)c2)cc1 | ≤ 2000
31 | COc1ccccc1-c1cc(-c2cccc(NC(=O)c3ccccc3)c2)n[nH]1 | 2510 to 3980
32 | COc1ccccc1-c1cc(-c2ccc(N(C)C)nc2)n[nH]1 | 2510 to 3980
33 | c1ccc(-c2cc(-c3ccccc3Oc3cccnc3)[nH]n2)cc1 | 2510 to 3980
34 | COc1cc([N+](=O)[O-])ccc1-c1cc(-c2ccccc2)n[nH]1 | ≤ 2000
35 | COc1ccccc1-c1cc(-c2ccc(N)cc2)n[nH]1 | ≥ 5010
36 | COc1ccc(COc2ccc(-c3cc(-c4ccccc4)n[nH]3)c(OC)c2)cc1 | 2510 to 3980
37 | COc1cc(NC(=O)c2ccccc2)ccc1-c1cc(-c2ccccc2)n[nH]1 | ≤ 2000
38 | COc1ccc(CNc2ccc(-c3cc(-c4ccccc4OC)[nH]n3)cn2)c(OC)c1 | ≤ 2000
39 | COc1ccccc1-c1cc(-c2ccccc2Cl)n[nH]1 | 2510 to 3980
40 | COCCNc1ccc(-c2cc(-c3ccccc3OC)[nH]n2)cn1 | 2510 to 3980
41 | Clc1cccc(Oc2ccccc2-c2cc(-c3cccnc3)n[nH]2)c1 | 2510 to 3980
42 | COc1ccc(NCc2ccccc2)cc1-c1cc(-c2ccccc2)n[nH]1 | ≥ 5010

Row | Structure (SMILES) | EC50 [nM]
43 | COc1cc(NCc2ccccc2)ccc1-c1cc(-c2ccccc2)n[nH]1 | 2510 to 3980
44 | COc1ccc(NC(=O)c2ccccc2)cc1-c1cc(-c2ccccc2)n[nH]1 | 2510 to 3980
45 | COc1ccc(NS(=O)(=O)c2ccccc2)cc1-c1cc(-c2ccccc2)n[nH]1 | 2510 to 3980
46 | COc1ccc(NC(=O)Cc2ccccc2)cc1-c1cc(-c2ccccc2)n[nH]1 | ≤ 2000
47 | COc1ccc(NC(=O)c2cncs2)cc1-c1cc(-c2ccccc2)n[nH]1 | ≥ 5010
48 | COc1ccc(NC(=O)c2ccoc2)cc1-c1cc(-c2ccccc2)n[nH]1 | 2510 to 3980
49 | COC[C@H](C)Oc1cc(OCc2ccccc2F)cc(-c2cc(OC)n[nH]2)c1 | ≥ 5010
50 | COC[C@H](C)Oc1cc(OCc2ccc(S(C)(=O)=O)cc2)cc(-c2cc(OC)n[nH]2)c1 | 2510 to 3980
51 | COC[C@H](C)Oc1cc(OCCc2ccsc2)cc(-c2cc(OC)n[nH]2)c1 | ≤ 2000
52 | COc1cc(-c2ccc3ncn(CC4CCCCC4)c3c2)[nH]n1 | ≥ 5010
53 | CS(=O)(=O)c1ccc(Oc2cc(OCc3ccccc3F)cc(-c3cc(O)n[nH]3)c2)cc1 | ≥ 5010
54 | COc1cc(-c2cc(OCc3ccccc3F)cc(Oc3ccc(S(C)(=O)=O)cc3)c2)[nH]n1 | ≤ 2000
55 | COC[C@H](C)Oc1cc(Oc2ccc(S(C)(=O)=O)cc2)cc(-c2cc(OC)n[nH]2)c1 | ≤ 2000
56 | COC[C@H](C)Oc1cc(Oc2ccc(S(C)(=O)=O)cc2)cc(-c2cc(OCC(=O)OC)n[nH]2)c1 | 2510 to 3980
57 | Cc1cccnc1COc1cc(Oc2ccc(S(C)(=O)=O)cc2)cc(-c2cc(O)n[nH]2)c1 | ≥ 5010
58 | COc1cc(-c2cc(OCc3ncccc3C)cc(Oc3ccc(S(C)(=O)=O)cc3)c2)[nH]n1 | ≤ 2000
59 | COc1cc(-c2cc(Oc3ccc(S(C)(=O)=O)cc3)cc(OC3CCCC3)c2)[nH]n1 | ≤ 2000
60 | Cc1ccccc1COc1cc(Oc2ccc(S(C)(=O)=O)cc2)cc(-c2cc(O)n[nH]2)c1 | ≥ 5010
61 | COc1cc(-c2cc(OCc3ccccc3C)cc(Oc3ccc(S(C)(=O)=O)cc3)c2)[nH]n1 | ≤ 2000
